Earlier results in US20080311200A1, “Controlled Slow Release Formulation of Thiamine and Use Thereof in the Treatment of Pathologies Connected to Defective Process of Learning and Memorization” (BIOPROGRESS S.P.A., priority 2004, published 2008).

System: mechanism of active transport through the intestine wall

concentration above which the active transport of intestinal absorption reaches saturation: higher than 2 μM
Structure (SMILES): Cc1ncc(C[n+]2csc(CCO)c2C)c(N)n1 [thiamine]
